Measurements reported in patent US7026282B1, “Peptide antagonists of the human urokinase receptor and method for selecting them” (Cancerforskningsfonden AF 1989 (Fonden Til Fremme AF …, priority 1998, dated 2006).
Positions of bridges follow the written chain, without caps; N, C: chain ends. Non-standard residues stand in square brackets, D forms with d. Residues, ends and D or L forms follow the SMILES beside them. Chains are numbered I, II in the order given. No end group written: not given here. Cha = N[C@@H](CC1CCCCC1)C(=O)O; βAla = NCCC(=O)O

Assays:
[1] = Mouse tolerance of peptide dosing; type: in vivo; details: 4 i.p. injections 8 hours apart, 1.38 mg each, total 5.52 mg per mouse
Description: Mice were given a series of 4 intraperitoneal injections, spaced 8 hours apart, of peptide AE120 dispersed in a poloxamer formulation containing 2.9% DMSO. Each injection delivered 1.38 mg of peptide in 200 μL of formula, so that each mouse received a total of 5.52 mg over the 24-hour study period.

[2] = target: T1, neuramimidase-treated human suPAR (soluble recombinant uPAR) (Homo sapiens, UniProt Q03405); test: Biacore Binding Assay (surface plasmon resonance), ligand binding to immobilised suPAR; details: for koff: Biacore, 5° C., immobilised suPAR, read-out: kdiss (dissociation rate constant, off-rate)
T1 construct: A soluble recombinant variant of human uPAR (suPAR) was expressed in Chinese hamster ovary (dhfr) cells; made in house; host or cells: Chinese hamster ovary (dhfr) cells
Description: Association rate constants (kass), dissociation rate constants (kdiss) and equilibrium binding constants (kd) for various synthetic peptides and receptor binding derivatives of human uPA were determined by surface plasmon resonance (R. Karlsson et al. (1991) J. Immunol. Meths. 145:229–240) using a BIAcore2000™ instrument (Pharmacia Biosensor, Uppsala, Sweden). Due to the low isoelectric point of uPAR (pI≈4.5) terminal sialic acid residues were removed from its N-linked carbohydrates to facilitate chemical immobilisation on the sensor chip. This was accomplished by incubating purified suPAR (1 mg/ml in 50 mM phosphate, 150 mM NaCl, pH 7.4) with 5 μg/ml neuramimidase for 4 hours at 37° C. […] Coupling of the neuramimidase-treated suPAR to a BIAcore sensor chip was achieved by injection of 20 μg/ml suPAR in 10 mM sodium acetate pH 5.0 for 6 minutes at a flow rate of […] per minute using a carboxymethylated dextran matrix (CM5 sensor chip) preactivated with N-hydroxysuccinimide/N-ethyl-N′-[3-([…])propyl]carbodiimide according to the manufacturer's recommendations. Approximately 1,500–2,000 resonance units (RU) were immobilised by this procedure (corresponding to 1–2 ng suPAR/mrn^2).
Sensorgrams (RU versus time) were recorded (FIG. 2) at a flow rate of 10 μl per min at 5° C. using several different concentrations of the ligand (synthetic peptides, uPA, the amino-terminal fragment (ATF) of uPA, or the growth factor domain (GFD) of uPA) in the range of 10 to 1000 nM in running buffer (10 mM HEPES, 150 mM NaCl, 3 mM EDTA (pH 7.4) including 0.005% surfactant P-20). Stock solutions of peptides from combinatorial chemistry were made in DMSO (10 mg peptide/ml DMSO). The sensor chip was regenerated at the end of each run by injection of 0.1 M acetic acid, 0.5 M NaCl. Data obtained from parallel mock coupled flow cells (subjected to the coupling procedure in the presence of buffer only) served as blank sensorgrams for subtraction of changes in bulk refractive index. The sensorgrams obtained were analysed by non-linear least squares fitting using BIAevaluation 2.0 software (Pharmacia Biosensor, Uppsala, Sweden) assuming single-site association and dissociation models.
Purified human suPAR (1 mg/ml in 50 mM phosphate, 150 mM NaCl, pH 7.4) was incubated with 5 μg/ml neuramimidase for 4 hours at 37° C.
In order to couple the neuramimidase-treated suPAR to a BIAcore sensor chip, 20 μg/ml suPAR in 10 mM sodium acetate (pH 5.0) was injected for 6 minutes at a flow rate of 5 μl per minute using a carboxymethylated dextran matrix (CM5 sensor chip), thereby immobilising approximately 1,500–2,000 resonance units (RU), which correspond to 1–2 ng suPAR/mm^2. The CM5 sensor chip was preactivated with N-hydroxysuccinimide/N-ethyl-N′-[3-([…])propyl]carbodiimide in accordance with the manufacturer's recommendations.
Surface plasmon resonance sensorgrams (RU versus time) were recorded at a flow rate of 10 μl per min at 5° C. using several different concentrations of the ligand (i.e. the relevant peptide or GFD) in the range from 10 to 1000 nM in running buffer (10 mM HEPES, 150 mM NaCl, 3 mM EDTA (pH 7.4) including 0.005% surfactant P-20).
The sensor chip was regenerated at the end of each run by injection of 0.1 M acetic acid, 0.5 M NaCl.
Data from parallel mock coupled flow cells (subjected to the coupling procedure in the presence of buffer only) served as blank sensorgrams for subtraction of changes in bulk refractive index.
The obtained sensorgrams were analysed by non-linear least squares fitting using BIAevaluation 2.0 software (Pharmacia Biosensor, Uppsala, Sweden) assuming single-site ssociation and dissociation models.

[3] = Pharmacokinetic experiment: functional peptide in mouse serum after i.p. injection; type: in vivo; details: 62.5 mg/kg, 1 to 24 hours
Description: Female nu/nu-META/Bom mice were injected intraperitoneally (i.p) with a solution of the peptide AE 120 (6.25 mg/ml in 0.5% (w/v) poloxamer 237 in PBS, pH 7.3) at a dose of 62.5 mg/kg mouse weight. At different time points between 1 hour and 24 hours, blood was collected from anaesthetised mice by cardiac puncture. The blood samples were allowed to clot for 30 min at room temperature, followed by centrifugation at 1,000×g for 10 min at 20° C., and the sera were stored frozen at −80° C. prior to assay. The presence of functional peptide antagonists in serum was determined by diluting the serum samples 1:10 with binding buffer (0.1% bovine serum albumin and 5 mM Hepes in Eagles MEM supplemented with Glutamax-1, pH 7.4) and analysing the samples in cell binding experiments with MDA-MB-231 BAG cells and ^125I-labelled human ATF as described in Example 7. As an internal standard, AE120 was added exogenously to pooled mouse sera at final concentrations of 12.5 nM, 25 nM, 125 nM and 250 nM.

[4] = Peptide stability in mouse serum ex vivo, read out by ATF cell-binding inhibition; type: in vitro ADME; details: 10% mouse serum, up to 24 hours, 37° C.
Description: Mouse blood was collected from anaesthetised mice (femal nu/nu-META/Bom (Bomholtgaard, Ry, Denmark)) by cardiac puncture. The blood samples were allowed to clot for 30 min at room temperature, followed by centrifugation at 1,000×g for 10 min at 20° C., and the sera were sterile filtered using 0.8 μm/0.2 μm filters (Acrodisc PF, Gelman Science, MI) and then stored at 4° C. until use. The peptide antagonists were added to fresh pooled mouse serum at the indicated concentrations (FIG. 5) and incubated at 37° C. for different periods, between 0 hours and 24 hours. Serum incubated samples were diluted 1:10 in binding buffer (0.1% bovine serum albumin and 5 mM Hepes in Eagles MEM supplemented with Glutamax-1, pH 7.4). Subsequently, cell binding experiments in the presence of ^125I-labelled human ATF were performed in duplicates as above, by preincubating MDA-MB-231 BAG cells at 37° C. 15 min with the 1:10 diluted serum incubated samples ± peptides. In parallel, peptides diluted in binding buffer alone were included as controls.
AE118 and AE78 (for comparison) were incubated at 37° C. in the presence of 10% mouse serum for different time intervals, up to 24 hours. The incubation mixtures were tested for their ability to inhibit binding of radio-labelled human uPA amino terminal fragment (ATF) to monolayer cultures of human MDA-MB-231 breast cancer cells, as described in Example 7.

uPAR-ATF interaction = uPAR-ATF interaction (Homo sapiens, UniProt Q03405); details: read-out: apparent inhibition constant; cited from earlier work
Chain of uPAR-ATF interaction (Q03405 23-305 limits assumed): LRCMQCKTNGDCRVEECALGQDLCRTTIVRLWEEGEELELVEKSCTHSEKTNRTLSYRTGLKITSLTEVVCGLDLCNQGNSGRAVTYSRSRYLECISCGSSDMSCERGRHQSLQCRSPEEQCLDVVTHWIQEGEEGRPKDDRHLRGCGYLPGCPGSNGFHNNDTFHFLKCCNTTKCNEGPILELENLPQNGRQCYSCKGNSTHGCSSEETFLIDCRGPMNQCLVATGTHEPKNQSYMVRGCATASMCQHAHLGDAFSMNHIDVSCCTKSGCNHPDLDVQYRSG

| Relative kdiss ([2]; relative to the Growth Factor Domain of uPA (GFD = 1.0)) | Compound | tolerance: effect on behaviour or well-being [1] | koff [2] [s⁻¹] | activity of peptide antagonist in mouse serum after dosing [3] | ability to inhibit ATF binding after incubation in mouse serum (stability) [4] | Ki (uPAR-ATF interaction) [nM] |
| --- | --- | --- | --- | --- | --- | --- |
|  | CC(C)C[C@H](NC(=O)[C@H](Cc1ccc(O)cc1)NC(=O)[C@@H](CCCNC(=N)N)NC(=O)[C@@H](CO)NC(=O)[C@H](Cc1ccccc1)NC(=O)[C@H](CC1CCCCC1)NC(=O)[C@@H](N)CC(=O)O)C(=O)N[C@@H](Cc1c[nH]c2ccccc12)C(=O)N[C@@H](CO)C(=O)NCC(=O)NCCCC[C@H](NC(=O)CCNC(=O)CNC(=O)[C@H](CO)NC(=O)[C@H](Cc1c[nH]c2ccccc12)NC(=O)[C@H](CC(C)C)NC(=O)[C@H](Cc1ccc(O)cc1)NC(=O)[C@@H](CCCNC(=N)N)NC(=O)[C@@H](CO)NC(=O)[C@H](Cc1ccccc1)NC(=O)[C@H](CC1CCCCC1)NC(=O)[C@@H](N)CC(=O)O)C(=O)O [AE120, α-[DChaFsrYLWSGβA]-ε-[DChaFsrYLWSG]-K] (I: H-D[Cha]F[dS][dR]YLWSG[βAla]K-OH / II: H-D[Cha]F[dS][dR]YLWSG; amide I:12-II:C) | no visible sign of any effect on the behaviour or well-being of the mice | 3e-05 | retained its activity in mouse serum for several hours | slight reduction |  |
| 72.1 | AEPMPHSLNFSQYLWYT [AE78, reference compound] |  | 0.0101 |  | lost the majority of its inhibitory activity | 10 |
